Measurements as given in ChEMBL document CHEMBL5518174 (Eur J Med Chem, 2024).
The source made the active and inactive calls. The calls are words filed in the database; no cut-off is given here.

Legend:
[1] = system: NCI-H1975; test: cells; type: functional, cell-based; details: Homo sapiens, NCI-H1975, 48 h
Description: Cytotoxicity against human NCI-H1975 cells assessed as inhibition of cell growth incubated for 48 hrs by Celltiter-glo assay

[2] = biological target: Histone deacetylase; test: Inhibition of HDAC in human HeLa cells nuclear extract; type: subcellular, Nucleus
[3] = system: MDA-MB-231; test: Cytotoxicity against human MDA-MB-231 cells assessed as inhibition of cell growth incubated for 48 hrs by Celltiter-glo assay; type: functional, cell-based; details: MDA-MB-231, 48 h
[4] = Antiproliferative activity against human CL1-5 cells harboring wild-type EGFR assessed as inhibition of cell growth by SRB assay; type: functional, cell-based
[5] = system: CL1-0; test: Antiproliferative activity against human CL1-0 cells harboring wild-type EGFR assessed as inhibition of cell growth by SRB assay; type: functional, cell-based
[6] = Antiproliferative activity against human CL25 cells harboring mutated EGFR assessed as inhibition of cell growth by SRB assay; type: functional, cell-based
[7] = Antiproliferative activity against human CL100 cells harboring mutated EGFR assessed as inhibition of cell growth by SRB assay; type: functional, cell-based
[8] = system: CL97; test: Antiproliferative activity against human CL97 cells harboring mutated EGFR assessed as inhibition of cell growth by SRB assay; type: functional, cell-based
[9] = Antiproliferative activity against human CL152 cells harboring wild-type EGFR assessed as inhibition of cell growth by SRB assay; type: functional, cell-based
[10] = Antiproliferative activity against human CL83 cells harboring wild-type EGFR assessed as inhibition of cell growth by SRB assay; type: functional, cell-based
[11] = system: NCI-H1975; test: Induction of katanin activation mediated microtubule fragmentation in human NCI-H1975 cells at 80 nM incubated for 12 hrs by FITC/DAPI staining based confocal laser microscopic analysis; type: cell-based; details: filed as activator
[12] = Antiproliferative activity against human CL141 cells harboring wild-type EGFR assessed as inhibition of cell growth by SRB assay; type: functional, cell-based

| Structure (SMILES) | IC50 [1] | IC50 [2] | other results |
| --- | --- | --- | --- |
| CCOc1ccc(-c2nc(C(=O)NCCCCC/C(N)=N/O)c3[nH]c(=O)n(-c4ccccc4OC)c3n2)cc1 | 500 nM | > 100000 nM |  |
| CCOc1ccc(-c2nc(C(=O)NOCCCCCC(=O)NO)c3[nH]c(=O)n(-c4ccccc4OC)c3n2)cc1 | 250 nM | 130 nM | IC50 [3]: 100 nM |
| CCOc1ccc(-c2nc(C(=O)NCCCCCCC(=O)NO)c3[nH]c(=O)n(-c4ccccc4OC)c3n2)cc1 | 140 nM | 170 nM | IC50 [4]: 170 nM; IC50 [5]: 60 nM; IC50 [6]: 320 nM; IC50 [7]: 360 nM; IC50 [8]: 240 nM; IC50 [3]: 40 nM; IC50 [9]: 260 nM; IC50 [10]: 320 nM; Activity [11]: Active; IC50 [12]: 270 nM |
| CCOc1ccc(-c2nc(C(=O)NCCCCCCC(=O)CSC(C)=O)c3[nH]c(=O)n(-c4ccccc4OC)c3n2)cc1 | 5600 nM | 2830 nM |  |
| CCOc1ccc(-c2nc(C(=O)NCCCc3nc(C(=O)NO)cs3)c3[nH]c(=O)n(-c4ccccc4OC)c3n2)cc1 | 4900 nM | 14200 nM |  |
| CCOc1ccc(-c2nc(C(=O)NCCCCCCC(=O)Nc3ccccc3N)c3[nH]c(=O)n(-c4ccccc4OC)c3n2)cc1 | 2200 nM | > 100000 nM |  |
| COc1ccc(-c2nc(C(=O)NCCCCCCC(=O)NO)c3[nH]c(=O)n(-c4ccccc4OC)c3n2)cc1O | 1200 nM | 10 nM | IC50 [3]: 310 nM |
| CCOc1ccc(-c2nc(C(=O)NCCCCCNC(=O)CN)c3[nH]c(=O)n(-c4ccccc4OC)c3n2)cc1.Cl | 4900 nM | > 100000 nM |  |
| CCOc1ccc(-c2nc(C(=O)NCCCCCCC(=O)N(Cc3ccccn3)Cc3ccccn3)c3[nH]c(=O)n(-c4ccccc4OC)c3n2)cc1 | 2300 nM | > 100000 nM |  |
| CCOc1ccc(-c2nc(C(=O)NCCCCCCC(=O)NOC)c3[nH]c(=O)n(-c4ccccc4OC)c3n2)cc1 | 400 nM | > 100000 nM |  |
| CCOc1ccc(-c2nc(C(=O)NCCCCCCC(=O)NO)c3[nH]c(=O)n(-c4cccnc4OC)c3n2)cc1 | 300 nM | 30 nM | IC50 [3]: 60 nM |
| CCOc1ccc(-c2nc(C(=O)NCCCCCCC(=O)NO)c3[nH]c(=O)n(-c4ccccc4OC)c3n2)cn1 | 400 nM | 40 nM | IC50 [3]: 60 nM |
| CCOc1ccc(-c2nc(C(=O)O)c3[nH]c(=O)n(-c4ccccc4OC)c3n2)cc1 | > 100000 nM | > 100000 nM |  |
| CCOc1ccc(-c2nc(C(=O)NCCCCCCC(=O)NO)c3[nH]c(=O)n(-c4ccccc4OC)c3n2)cc1S(N)(=O)=O | 24800 nM | 60 nM |  |
| CCOc1ccc(-c2nc(C(=O)NCCCCCCC(=O)Nc3nccs3)c3[nH]c(=O)n(-c4ccccc4OC)c3n2)cc1 | 2600 nM | > 100000 nM |  |
| COc1ccccc1-n1c(=O)[nH]c2c(C(N)=O)nc(-c3ccc(C(C)C)cc3)nc21 | > 100000 nM | > 100000 nM |  |
| CCOc1ccc(-c2nc(C(=O)NCCCCCCCN(Cc3ccccn3)Cc3ccccn3)c3[nH]c(=O)n(-c4ccccc4OC)c3n2)cc1 | 2700 nM | > 100000 nM |  |
| CCOc1ccc(-c2nc(C(=O)NCCCCCCC(=O)O)c3[nH]c(=O)n(-c4ccccc4OC)c3n2)cc1 | 3400 nM | > 100000 nM |  |
| CCOc1ccc(-c2nc(C(=O)NCCCCCCNC(=O)NO)c3[nH]c(=O)n(-c4ccccc4OC)c3n2)cc1 | 3300 nM | > 100000 nM |  |
| CCOc1ccc(-c2nc(C(=O)NCc3ccc(C(=O)NO)cc3)c3[nH]c(=O)n(-c4ccccc4OC)c3n2)cc1 | 130 nM | 250 nM | IC50 [3]: 70 nM |
| CCOc1ccc(-c2nc(C(=O)NCCCCNC(=O)CN)c3[nH]c(=O)n(-c4ccccc4OC)c3n2)cc1.Cl | 16200 nM | > 100000 nM |  |
| CCOc1ccc(-c2nc(C(=O)NCCCCCCC(=O)N(C)O)c3[nH]c(=O)n(-c4ccccc4OC)c3n2)cc1 | 1500 nM | > 100000 nM |  |
| CCOc1ccc(-c2nc(C(=O)NCCCCCCNC(N)=O)c3[nH]c(=O)n(-c4ccccc4OC)c3n2)cc1 | 2000 nM | > 100000 nM |  |
| CCOc1ccc(-c2nc(C(=O)NO)c3[nH]c(=O)n(-c4ccccc4OC)c3n2)cc1 |  | > 100000 nM |  |
| CCOc1ccc(-c2nc(C(=O)NCCCCCCC(=O)NC3CCCCC3O)c3[nH]c(=O)n(-c4ccccc4OC)c3n2)cc1 (centres undefined) | 1400 nM | > 100000 nM |  |
| CCOc1ccc(-c2nc(C(N)=O)c3[nH]c(=O)n(-c4ccccc4OC)c3n2)cc1 |  | > 100000 nM |  |
| CCOc1ccc(-c2nc(C(=O)NCCCCCCC(=O)NO)c3[nH]c(=O)n(-c4cccnc4OC)c3n2)cn1 | 410 nM | 2 nM | IC50 [3]: 320 nM |
| CCOc1ccc(-c2nc(C(=O)NCCOCCOCC(=O)NO)c3[nH]c(=O)n(-c4ccccc4OC)c3n2)cc1 | 4600 nM | 10800 nM |  |
| CCOc1ccc(-c2nc(C(=O)NCCCCCCNC(=O)CN)c3[nH]c(=O)n(-c4ccccc4OC)c3n2)cc1.Cl | 2400 nM | > 100000 nM |  |
| COc1ccccc1-n1c(=O)[nH]c2c(C(=O)NCCCCCCC(=O)NO)nc(C(C)C)nc21 | 1500 nM | 200 nM |  |
